Assay results taken from ChEMBL document CHEMBL1201862, “PubChem BioAssay data set” (2004).
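Step 1: Grow cells in 96-well plates. Step 2: Expose to compound for 48 hours at 5 concentrations. Step 3: Interpolate endpoints linearly; if unreached, use highest concentration. GI50 is the concentration that inhibits growth by half.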 The source made the active and inactive calls. Rule as the data show it: active = GI50 up to about 1.1 µM and inactive = higher.

Key:
Test in all cases: growth of human tumour cells (NCI), 48 h
Malme-3M = tested on: Malme-3M
IGROV-1 = tested on: IGROV-1
HCC 2998 = tested on: HCC 2998
NCI/ADR-RES = tested on: NCI/ADR-RES
UACC-62 = tested on: UACC-62
SF-268 = tested on: SF-268
OVCAR-3 = tested on: OVCAR-3
EKVX = tested on: EKVX
M14 = tested on: M14
SF-295 = tested on: SF-295
LOX IMVI = tested on: LOX IMVI
SNB-75 = tested on: SNB-75
NCI-H522 = tested on: NCI-H522
SR = tested on: SR
SN12C = tested on: SN12C
MDA-MB-435 = tested on: MDA-MB-435
HOP-92 = tested on: HOP-92
A549 = tested on: A549
SF-539 = tested on: SF-539
NCI-H23 = tested on: NCI-H23

Structure (SMILES)	GI50 (Malme-3M)	GI50 (IGROV-1)	GI50 (HCC 2998)	GI50 (NCI/ADR-RES)	GI50 (UACC-62)	GI50 (SF-268)	GI50 (OVCAR-3)	GI50 (EKVX)	GI50 (M14)	GI50 (SF-295)	GI50 (LOX IMVI)	GI50 (SNB-75)	GI50 (NCI-H522)	GI50 (SR)	GI50 (SN12C)	GI50 (MDA-MB-435)	GI50 (HOP-92)	GI50 (A549)	GI50 (SF-539)	GI50 (NCI-H23)
Cn1c(=O)c2c3ccccc3n(C)c2n(C)c1=O	> 100 µM (inactive)	> 100 µM (inactive)	> 100 µM (inactive)	> 100 µM (inactive)	> 100 µM (inactive)	> 100 µM (inactive)	> 100 µM (inactive)	> 100 µM (inactive)	> 100 µM (inactive)	> 100 µM (inactive)	> 100 µM (inactive)	1.26 µM (inactive)	> 100 µM (inactive)	> 100 µM (inactive)	> 100 µM (inactive)	> 100 µM (inactive)	> 100 µM (inactive)	> 100 µM (inactive)	> 100 µM (inactive)	> 100 µM (inactive)
COc1cc(OC)c(/C=N\Nc2nc3ccccc3c(=O)n2-c2ccccc2)c(OC)c1	28.1 µM (inactive)	40.6 µM (inactive)	39.6 µM (inactive)	19.9 µM (inactive)	19.5 µM (inactive)	34.9 µM (inactive)	23.6 µM (inactive)	26.9 µM (inactive)	27.3 µM (inactive)	25.6 µM (inactive)	23.2 µM (inactive)	24.9 µM (inactive)	26.6 µM (inactive)	36.6 µM (inactive)	30.7 µM (inactive)	24.5 µM (inactive)	24.8 µM (inactive)	31.4 µM (inactive)	18 µM (inactive)	58.5 µM (inactive)
COc1ccc(/C=C(/c2ccccc2)c2c(C)cc(C)c(/C(=C\c3ccc(OC)cc3)c3ccccc3)c2/N=N/c2cc(C)cc(C)c2)cc1	17.9 µM (inactive)	14.4 µM (inactive)	8.34 µM (inactive)	> 100 µM (inactive)	45.6 µM (inactive)	39.9 µM (inactive)	4.1 µM (inactive)	30 µM (inactive)	44.6 µM (inactive)	24.7 µM (inactive)	24.2 µM (inactive)	6.92 µM (inactive)	15 µM (inactive)	63.5 µM (inactive)	8.47 µM (inactive)	14.6 µM (inactive)	33.6 µM (inactive)	14.6 µM (inactive)	42.1 µM (inactive)	14.4 µM (inactive)
COc1ccc(/C=C2\CCC(CNc3cc(C)on3)C2=O)cc1 (stereo not given)	> 100 µM (inactive)	98.2 µM (inactive)	> 44.9 µM (inactive)	> 54 µM (inactive)	> 100 µM (inactive)	> 70 µM (inactive)	> 100 µM (inactive)	> 100 µM (inactive)	> 100 µM (inactive)	74.6 µM (inactive)	> 100 µM (inactive)	29.4 µM (inactive)	79.8 µM (inactive)	> 100 µM (inactive)	> 100 µM (inactive)	> 100 µM (inactive)	> 100 µM (inactive)	> 88.7 µM (inactive)	> 100 µM (inactive)	> 78.2 µM (inactive)
O=C(O)CCCN/C(=C1\C(=O)C(=O)N(c2ccccc2)C1=O)c1ccccc1	> 100 µM (inactive)	> 100 µM (inactive)	> 100 µM (inactive)	> 100 µM (inactive)	> 100 µM (inactive)	> 100 µM (inactive)	> 100 µM (inactive)	> 100 µM (inactive)	> 100 µM (inactive)	> 100 µM (inactive)	> 100 µM (inactive)	> 100 µM (inactive)	> 100 µM (inactive)	20 µM (inactive)	> 100 µM (inactive)	> 100 µM (inactive)	> 100 µM (inactive)	> 100 µM (inactive)	82 µM (inactive)	> 100 µM (inactive)
C=CC1(CC[C@]2(c3ccc(OC)c(OC)c3)C=[N+]([O-])O[C@H](O[C@@H]3CCCC[C@H]3C(C)(C)c3ccccc3)C2)OCC(C)(C)CO1	7.26 µM (inactive)	6.82 µM (inactive)	16.1 µM (inactive)	10.7 µM (inactive)	14 µM (inactive)	7.13 µM (inactive)	6.59 µM (inactive)	12.7 µM (inactive)	16.3 µM (inactive)	22.1 µM (inactive)	10.5 µM (inactive)	9.62 µM (inactive)	3.11 µM (inactive)	> 19.9 µM (inactive)	10.8 µM (inactive)	11.5 µM (inactive)	13.5 µM (inactive)	14.6 µM (inactive)	14.8 µM (inactive)	16.2 µM (inactive)
CCOC(=O)c1cc(-n2nnc3ccccc32)cn1C	> 10 µM (inactive)	> 10 µM (inactive)	> 10 µM (inactive)	> 10 µM (inactive)	> 10 µM (inactive)	> 10 µM (inactive)	> 10 µM (inactive)	> 10 µM (inactive)	> 10 µM (inactive)	> 10 µM (inactive)	> 10 µM (inactive)	8.59 µM (inactive)	> 10 µM (inactive)	1.32 µM (inactive)	> 10 µM (inactive)	> 10 µM (inactive)	> 10 µM (inactive)	> 10 µM (inactive)	> 10 µM (inactive)	> 10 µM (inactive)
CCOP(=O)(OCC)/C(C#N)=C/c1cccn1C(C)C	> 100 µM (inactive)	> 100 µM (inactive)	> 100 µM (inactive)	> 100 µM (inactive)	> 100 µM (inactive)	> 100 µM (inactive)	> 100 µM (inactive)	> 100 µM (inactive)	> 100 µM (inactive)	> 100 µM (inactive)	> 100 µM (inactive)	> 100 µM (inactive)	> 100 µM (inactive)	> 100 µM (inactive)	> 100 µM (inactive)	> 100 µM (inactive)	> 100 µM (inactive)	> 100 µM (inactive)	> 100 µM (inactive)	> 100 µM (inactive)
CC(=O)OC1CC[C@@]2(C)C(CC[C@]3(C)C2CC=C2[C@@H]4C(C)[C@H](C)CCC4(C)CCC23C)[C@@]1(C)C(=O)O (stereo not given in full)	24.2 µM (inactive)	20.6 µM (inactive)	19.1 µM (inactive)	17 µM (inactive)	17 µM (inactive)	23.5 µM (inactive)	18.9 µM (inactive)	18 µM (inactive)	22.3 µM (inactive)	17.6 µM (inactive)	20.9 µM (inactive)	19.2 µM (inactive)	19.2 µM (inactive)	27.9 µM (inactive)	21.5 µM (inactive)	19.8 µM (inactive)	21.2 µM (inactive)	17.5 µM (inactive)	21.4 µM (inactive)	22.5 µM (inactive)
COc1cc2cc(C(=O)N3CC(CCl)c4c3cc([N+](=O)[O-])c3ccccc43)[nH]c2c(OC)c1OC (stereo not given)	68.1 µM (inactive)	33 µM (inactive)	14.1 µM (inactive)	9.06 µM (inactive)	15.9 µM (inactive)	26.8 µM (inactive)	> 100 µM (inactive)	16.7 µM (inactive)	46.6 µM (inactive)	14.7 µM (inactive)	49.9 µM (inactive)	31.8 µM (inactive)	24.7 µM (inactive)	0.455 µM (active)	79.6 µM (inactive)	> 100 µM (inactive)	> 70.1 µM (inactive)	1.8 µM (inactive)	25.8 µM (inactive)	27.2 µM (inactive)
Cc1ccc2c(c1)NC(=O)CC(c1ccccc1)=N2	> 100 µM (inactive)	> 100 µM (inactive)	> 100 µM (inactive)	77.4 µM (inactive)	> 100 µM (inactive)	> 100 µM (inactive)	> 100 µM (inactive)	> 100 µM (inactive)	> 100 µM (inactive)	> 100 µM (inactive)	> 100 µM (inactive)	76.7 µM (inactive)	45.6 µM (inactive)	23.7 µM (inactive)	> 100 µM (inactive)	31 µM (inactive)	> 100 µM (inactive)	81.7 µM (inactive)	> 100 µM (inactive)	> 100 µM (inactive)
